The structures appear in SMILES notation. pKd: −log10 of the molar value. Where only a bound is given, the exact number is not on record here.

This note sets out measurements from patent US20250388605A1, “HETEROBIFUNCTIONAL COMPOUNDS AND METHODS OF TREATING DISEASE” (Halda Therapeutics OpCo, Inc., priority 2022, published 2025).

One test has as its target T1, BRD4-BD1 (Homo sapiens, UniProt O60885).
T1 construct: made in house; host or cells: T7 phage grown in an E. coli host derived from the BL21 strain
Kind of test: Binding affinity to BRD4-BD1 (bromoKdELECT assay). The following applies: 11-point 3-fold dilution series. Here is the method:
(§1) Compounds were tested using a bromoKdELECT assay. T7 phage strains displaying bromodomains were grown in parallel in 24-well blocks in an E. coli host derived from the BL21 strain. E. coli were grown to log-phase and infected with T7 phage from a frozen stock (multiplicity of infection=0.4) and incubated with shaking at 32° C. until lysis (90-150 minutes). The lysates were centrifuged (5,000×g) and filtered ([…]) to remove cell debris. Streptavidin-coated magnetic beads were treated with biotinylated small molecule or acetylated peptide ligands for 30 minutes at room temperature to generate affinity resins for bromodomain assays. The liganded beads were blocked with excess biotin and washed with blocking buffer (SeaBlock (Pierce), 1% BSA, 0.05% Tween 20, 1 mM DTT) to remove unbound ligand and to reduce nonspecific phage binding. Binding reactions were assembled by combining bromodomains, liganded affinity beads, and test compounds in 1× binding buffer (17% SeaBlock, 0.33×PBS, 0.04% Tween 20, 0.02% BSA, 0.004% Sodium azide, 7.4 mM DTT). Test compounds were prepared as 1000× stocks in 100% DMSO. Kds were determined using an 11-point 3-fold compound dilution series with one DMSO control point. All compounds for Kd measurements are distributed by acoustic transfer (non-contact dispensing) in 100% DMSO. The compounds were then diluted directly into the assays such that the final concentration of DMSO was 0.09%. All reactions performed in polypropylene 384-well plates. Each was a final volume of 0.02 ml. The assay plates were incubated at room temperature with shaking for 1 hour and the affinity beads were washed with wash buffer (1×PBS, 0.05% Tween 20). The beads were then resuspended in elution buffer (1×PBS, 0.05% Tween 20, 2 M non-biotinylated affinity ligand) and incubated at room temperature with shaking for 30 minutes. The bromodomain concentration in the eluates was measured by qPCR.

The next test relates to VCaP cells. Kind of test: Cellular growth inhibition assay for VCaP cells, CellTiter-Glo. Type of test: cell-based, human. The following applies: 72 hours. In short, it runs like this: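 GI50 values come from four-parameter curve fits of luminescence data normalized to a zero baseline. Compound, in medium with 0.5% DMSO, was added one day after plating and left for 72 h before CellTiter-Glo 2.0 addition.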
Background: ATP-based viability assays read luminescence as a measure of living cells.

Test [1] has as its system T-Rex 293 cell line SC3 cells having increased expression of androgen receptor protein due to exposure to doxycycline. Kind of test: Cellular growth inhibition, T-Rex 293 SC3 cells with doxycycline (increased androgen receptor expression), CellTiter-Glo. It is filed as cell-based. The following applies: T-Rex 293 SC3 cells with 10 ng/mL doxycycline (increased androgen receptor expression), 72 hours, CellTiter-Glo 2.0. The method, boiled down: (§2)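 Doxycycline (10 ng/mL) was either included or omitted to toggle wild-type androgen receptor expression in SC3 cells, a T-Rex 293 clone, grown in stripped-serum, phenol red-free medium. After 72 hours with compound, viable cells were quantified by CellTiter-Glo 2.0.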

The target in a further test is T2, BRD4-BD2 (Homo sapiens, UniProt O60885).
T2 construct: made in house; host or cells: T7 phage grown in an E. coli host derived from the BL21 strain
Kind of test: Binding affinity to BRD4-BD2 (bromoKdELECT assay). The settings on record: 11-point 3-fold dilution series. Here is the method: as §1, with “2 μM” for “2 M”

Test [2] deals with T-Rex 293 cell line SC3 cells lacking increased expression of androgen receptor protein. The test is described as follows: Cellular growth inhibition, T-Rex 293 SC3 cells without doxycycline (no increased androgen receptor expression), CellTiter-Glo. It is filed as cell-based. The settings on record: T-Rex 293 SC3 cells not exposed to doxycycline (no increased androgen receptor expression), 72 hours. The method, boiled down:
as §2

Another test has as its system T47D cells. Kind of test: Cellular Growth Inhibition Assay for T47D Cells (CellTiter-Glo). The settings on record: 72 hours. Type of test: cell-based, human. In short, it runs like this: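 GI50 values derive from four-parameter regression of CellTiter-Glo 2.0 luminescence, using zero luminescence as baseline. Human breast cancer T47D cells (3000/well; DMEM, 10% FBS, 0.2 units/mL insulin) were exposed for 72 h to compound dilutions at 0.5% DMSO, with dosing starting 24 h after seeding.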

Broadly, the pKd is the negative decadic logarithm of the Kd, by convention in mol/L. Low readings indicate a high Kd, high ones a low Kd. One may read the GI50 as the concentration giving 50% growth inhibition. Read a low GI50 as greater sensitivity of the cells. For `CN(c1ccc(Oc2cccc(OCCOC3CCN(c4ncc(C(=O)N[C@H]5C(C)(C)[C@H](Oc6ccc(C#N)c(Cl)c6)C5(C)C)cn4)CC3)c2)c(-c2cn(C)c(=O)c3[nH]ccc23)c1)S(=O)(=O)C1CC1` [Compound I-49], the pKd is less than 5.60 on BRD4-BD1 and 5.60 to 6.30 at BRD4-BD2. Moreover, the results for the GI50 (in the test on VCaP cells (Homo sapiens); in test [1]; in test [2]) were less than 500 nM, less than 500 nM and greater than 3000 nM, respectively.

For the compound `CCS(=O)(=O)Nc1ccc(Oc2cccc(OCCOCCOCCOCCOCCOCCOCCOC3CCN(c4ncc(C(=O)N[C@H]5C(C)(C)[C@H](Oc6ccc(C#N)c(Cl)c6)C5(C)C)cn4)CC3)c2)c(-c2cn(C)c(=O)c3[nH]ccc23)c1` [Compound I-9], the pKd is 6.30 to 7.30 at BRD4-BD1 and greater than 7.30 on BRD4-BD2. Further, the values for the GI50 (in the test with VCaP cells (Homo sapiens); in test [1]; in test [2]) were less than 500 nM, less than 500 nM and 500 to 1500 nM, respectively.

Turning to `CCS(=O)(=O)Nc1ccc(Oc2cccc(OCCCN3CCN(CCCOC4CCN(c5ncc(C(=O)N[C@H]6C(C)(C)[C@H](Oc7ccc(C#N)c(Cl)c7)C6(C)C)cn5)CC4)CC3)c2)c(-c2cn(C)c(=O)c3[nH]ccc23)c1` [Compound I-10], the figures for the pKd on BRD4-BD1 and on BRD4-BD2 were 6.30 to 7.30 and greater than 7.30, respectively. Moreover, the GI50 (in the test on VCaP cells (Homo sapiens); in test [1]; in test [2]) was less than 500 nM each time.

As to `CCS(=O)(=O)Nc1ccc(OCC(OCCCOC2CCN(c3ncc(C(=O)N[C@H]4C(C)(C)[C@H](Oc5ccc(C#N)c(Cl)c5)C4(C)C)cn3)CC2)C2CC2)c(-c2cn(C)c(=O)c3[nH]ccc23)c1` (stereo partly shown) [Compound I-187], the pKd is 6.30 to 7.30 at BRD4-BD1 and 5.60 to 6.30 at BRD4-BD2. Moreover, the 50% growth inhibitory concentration (GI50) is less than 500 nM in the test with VCaP cells, less than 500 nM in test [1] and greater than 3000 nM in test [2].

Regarding `CCS(=O)(=O)Cc1ccc(Oc2cccc(CCCN3CCN(c4ncc(C(=O)N[C@H]5C(C)(C)[C@H](Oc6ccc(C#N)c(Cl)c6)C5(C)C)cn4)CC3)c2)c(-c2cn(C)c(=O)c3[nH]ccc23)c1` [Compound I-133], the pKd at BRD4-BD1 is 6.30 to 7.30; at BRD4-BD2, greater than 7.30. Further, the GI50 (in the test on VCaP cells; in test [1]; in test [2]) was less than 500 nM in each case.

Consider `CN(c1ccc(Oc2cccc(OCCN3CCN(c4ncc(C(=O)N[C@H]5C(C)(C)[C@H](Oc6ccc(C#N)c(Cl)c6)C5(C)C)cn4)CC3)c2)c(-c2cn(C)c(=O)c3[nH]ccc23)c1)S(=O)(=O)C1CC1` [Compound I-95], for which the figures for the pKd on BRD4-BD1 and at BRD4-BD2 were 5.60 to 6.30 and 6.30 to 7.30, respectively. The concentration for 50% growth inhibition (GI50) (in the test with VCaP cells (Homo sapiens); in test [1]; in test [2]) was less than 500 nM in each case.

For `CCS(=O)(=O)Cc1ccc(Oc2cccc(OCCC3CCN(c4ncc(C(=O)N[C@H]5C(C)(C)[C@H](Oc6ccc(C#N)c(Cl)c6)C5(C)C)cn4)CC3)c2)c(-c2cn(C)c(=O)c3[nH]ccc23)c1` [Compound I-109], the pKd on BRD4-BD1 was less than 5.60; at BRD4-BD2, 5.60 to 6.30. The GI50 (with VCaP cells; in test [1]; in test [2]) was less than 500 nM throughout.

On to `CCS(=O)(=O)N(C)c1ccc(Oc2cccc(OCCOC3CCN(c4ncc(C(=O)N[C@H]5C(C)(C)[C@H](Oc6ccc(C#N)c(Cl)c6)C5(C)C)cn4)CC3)c2)c(-c2cn(C)c(=O)c3[nH]ccc23)c1` [Compound I-52], for which the pKd is less than 5.60 on BRD4-BD1 and 5.60 to 6.30 on BRD4-BD2. In addition, the GI50 (in the test with VCaP cells (Homo sapiens); in test [1]; in test [2]) was less than 500 nM in each case.

On to `Cn1cc(-c2cc(NS(=O)(=O)C3CC3)ccc2Oc2cccc(OCCOC3CCN(c4ncc(C(=O)N[C@H]5C(C)(C)[C@H](Oc6ccc(C#N)c(Cl)c6)C5(C)C)cn4)CC3)c2)c2cc[nH]c2c1=O` [Compound I-48, N-((1r, 3r)-3-(3-chloro-4-cyanophenoxy)-2,2,4,4-tetramethylcyclobutyl)-2-(4-(2-(3-(4-(cyclopropanesulfonamido)-2-(6-methyl-7-oxo-6,7-dihydro-1H-pyrrolo[2,3-c]pyridin-4-yl)phenoxy)phenoxy)ethoxy)piperidin-1-yl)pyrimidine-5-carboxamide], for which the pKd on BRD4-BD1 was less than 5.60; at BRD4-BD2, 5.60 to 6.30. In addition, the values for the GI50 (in the test on VCaP cells (Homo sapiens); in test [1]; in test [2]) were less than 500 nM, less than 500 nM and greater than 3000 nM, respectively.

In the case of `CCS(=O)(=O)Cc1ccc(Oc2cccc(OCCN3CCN(c4ncc(C(=O)N[C@H]5C(C)(C)[C@H](Oc6ccc(C#N)c(Cl)c6)C5(C)C)cn4)CC3)c2)c(-c2cn(C)c(=O)c3[nH]ccc23)c1` [Compound I-106], the pKd is 6.30 to 7.30 at BRD4-BD1 and greater than 7.30 on BRD4-BD2. Besides, the GI50 (with VCaP cells; in test [1]; in test [2]) was less than 500 nM in each case.

Turning to `CCS(=O)(=O)c1ccc(OC(COCCOC2CCN(c3ncc(C(=O)NC4C(C)(C)C(Oc5ccc(C#N)c(Cl)c5)C4(C)C)cn3)CC2)C2CC2)c(-c2cn(C)c(=O)c3[nH]ccc23)c1` (stereo not shown) [Compound I-186, N-[3-(3-chloro-4-cyano-phenoxy)-2,2,4,4-tetramethyl-cyclobutyl]-2-[4-[2-[2-cyclopropyl-2-[4-ethylsulfonyl-2-(6-methyl-7-oxo-1H-pyrrolo[2,3-c]pyridin-4-yl)phenoxy]ethoxy]ethoxy]-1-piperidyl]pyrimidine-5-carboxamide], the pKd at BRD4-BD1 and at BRD4-BD2 was 6.30 to 7.30 in each case. In addition, the GI50 (with VCaP cells (Homo sapiens); in test [1]; in test [2]) was less than 500 nM in each case.

For `CCS(=O)(=O)Nc1ccc(Oc2cccc(OCCCN3CCN(CCCN(C)c4ncc(C(=O)N[C@H]5C(C)(C)[C@H](Oc6ccc(C#N)c(Cl)c6)C5(C)C)cn4)CC3)c2)c(-c2cn(C)c(=O)c3[nH]ccc23)c1` [Compound I-5], the pKd at BRD4-BD1 was 6.30 to 7.30; at BRD4-BD2 it was greater than 7.30. Further, the GI50 was less than 500 nM in test [1] and 500 to 1500 nM in test [2].

As for `Cn1cc(-c2cc(C(C)(C)O)ccc2Oc2ccc(CC3CC(C4CCCN(c5ncc(C(=O)N[C@H]6C(C)(C)[C@H](Oc7ccc(C#N)c(Cl)c7)C6(C)C)cn5)C4)C3)cc2)c2cc[nH]c2c1=O` (single isomer, unassigned) [Compound I-349], the GI50 with VCaP cells is less than 500 nM; in test [1], greater than 3000 nM; in the test on T47D cells, less than 500 nM; in test [2], greater than 3000 nM.

As for `CCS(=O)(=O)c1ccc(Oc2ccc(OC3CC4(CCN(c5ncc(C(=O)N[C@H]6C(C)(C)[C@H](Oc7ccc(C#N)c(Cl)c7)C6(C)C)cn5)CC4)C3)c(F)c2)c(-c2cn(C)c(=O)c3[nH]ccc23)c1` [Compound I-283], the GI50 was less than 500 nM in the test with VCaP cells (Homo sapiens), less than 500 nM in test [1], less than 500 nM in the test on T47D cells (Homo sapiens) and greater than 3000 nM in test [2].
